Reference: PMC10136548, “Evaluation of 3D Human Intestinal Organoids as a Platform for EV-A71 Antiviral Drug Discovery” (Cells, 2023)

Assays:
[1] = Cytotoxicity (Cell Titer-Glo 3D viability) in non-infected HIOs; assay type: cell-based; details: human; for CC50 at 72 h: non-infected HIOs, compounds 0.5–100 μM
Procedure: HiPSCs were cultured in colonies on Matrigel (Corning Inc., Corning, NY, USA) in mTeSR1 medium (STEMCELL Technologies, Vancouver, BC, Canada). HIOs were differentiated from the hiPSC line using STEMdiff™ Intestinal Organoid Kit (STEMCELL Technologies) following the manufacturer’s instructions. Briefly, hiPSCs were plated and differentiated towards definitive endoderm (day 3), and then to mid-/hindgut cells (day 5–9 post seeding). The spheroids generated during the mid-/hindgut stage were embedded in Matrigel and grown in intestinal growth media for further differentiation and expansion into intestinal organoids (30–45 days post hiPSCs seeding). After maturation and for long-term culture, HIOs were passaged twice a week, and medium was changed if needed every two days.
(§1) Viability of HIOs and RD cells were determined by Cell Titer-Glo® 3D Cell Viability Assay (Promega, Fitchburg, WI, USA) and Cell Titer-Glo® Luminescent Cell Viability Assay (Promega), respectively. According to the manufacturer’s instructions, in a white 96-well plate (Greiner Bio-One, Stonehouse, UK), a 1:1 ratio of reagent and spent culture medium was added to the wells and mixed, and the luminescence signal was measured by CLARIO star plus (B M G Labtech Ltd., Aylesbury, UK).
(§2) For determination of compounds’ half maximal cytotoxic concentration (CC50), the non-infected HIOs/cells were treated with compounds (0.5–100 μM) for 72 h. The viability % was calculated as follows: (luminescence reading compound treated)/(luminescence reading DMSO control) × 100. The CC50 was calculated using non-linear regression (curve fit) with GraphPad Prism 9 (GraphPad, La Jolla, CA, USA). For determination of compounds half maximal effective concentration (EC50), the infected HIOs/cells were treated with DMSO (i.e., 0 µM) or compounds (0.15–40 μM) for 72 h. The CPE inhibition % was calculated as follows: (luminescence reading compound treated)/(luminescence reading DMSO control) × 100. The EC50 was calculated using non-linear regression (curve fit) with GraphPad Prism 9 (GraphPad).

[2] = Cytotoxicity (Cell Titer-Glo viability) in non-infected RD cells; assay type: cell-based; details: human, non-infected RD cells (ATCC CCL-136); for CC50 at 72 h: non-infected RD cells, compounds 0.5–100 μM
Procedure: RD cells (ATCC, CCL-136, Manassas, VA, USA) were maintained in Dulbecco’s modified Eagle’s medium (DMEM) (Gibco, Thermo Fisher Scientific, Waltham, MA, USA) supplemented with 10% fetal bovine serum (FBS) (Gibco), 1% L-glutamine (Gibco), 1% sodium bicarbonate (Gibco), and 1% penicillin-streptomycin (Gibco). The cell culture was incubated at 37 °C under 5% CO2.
as §1, §2

EV-A71 BrCr strain [3] = assay: CPE inhibition in EV-A71-infected HIOs; assay type: cell-based, Enterovirus A71; details: for EV-A71-induced CPE upon visual inspection: 1.25 μM, 72 hpi; for Selectivity Index (SI) = CC50/EC50: EC50 from CPE inhibition; for EC50: Enterovirus A, EVA71, EV-A71 MOI 0.1, 72 h, read-out: EC50 based on CPE inhibition
Procedure: (§3) EV-A71 BrCr strain, a gift from Prof. F. van Kuppeveld (University of Utrecht, Utrecht, The Netherlands), was propagated in RD cells, cultured in 2% FBS-DMEM at 37 °C under 5% CO2. […] EV-A71 stock titer was determined by the 50% tissue culture infective dose (TCID50) assay (Reed and Muench, 1938).
(§4) For infection, HIOs were mechanically fragmented by vigorously pipetting using a P1000 to expose the apical surface to the virus inoculum as previously described. After virus inoculation (MOI = 0.01, 0.1, or 1) with EV-A71 or mock infection, the mixture was then incubated for 2 h at 37 °C for virus adsorption. After washing, the infected HIO fragments were mixed with 20% Matrigel-organoid growth medium and seeded at 10,000 cells/well in a 96-well plate pre-coated with 20% Matrigel-organoid growth medium at 50 µL/well.
as §1
as §2, with “For determination of compounds half maximal effective concentration (EC50), the infected HIOs/cells were treated with DMSO (i.e., 0 µM) or compounds (0.15–40 μM) for 72 h.” left out
(§5) Figure 4 Comparison of antiviral activity determined by CPE inhibition and viral RNA yield between HIOs and RD cells. (A) Viability of HIOs and RD cells was measured, using Cell Titer-Glo 3D or Cell Titer-Glo, after 72 h of EV-A71 infection at MOI 0.1 and incubation with compounds at indicated concentrations. CPE inhibition is calculated based on percentage of mock-infected control. The half maximal effective concentration (EC50) was calculated using Prism nonlinear regression (GraphPad Prism 9). (B) For viral RNA yield, HIOs and RD cells were infected with EV-A71 at an MOI of 0.1 and treated with compounds at indicated concentrations for 72 h before total culture of HIOs or supernatant of cells were collected by combining triplicates and determined by RT-qPCR. Viral RNA yield is calculated based on percentage of mock-infected control. The EC50 was calculated using Prism nonlinear regression (GraphPad Prism 9). (C) Brightfield images of mock control, infection treated with 1.25 µM rupintrivir, and infected control HIOs and RD cells at 72 hpi. All images were acquired using the same objective. Scale bar, […]. (D) Images represent mock-, EV-A71-infected HIOs (0.1 MOI), and EV-A71-infected HIOs (0.1 MOI) treated with rupintrivir (10 µM) at 48 hpi: DAPI (blue) for nucleus, phalloidin (red) for F-actin, and dsRNA (green). Scale bar, […]. Data are the mean ± SEM of at least six independent experiments; each carried out in triplicate.

EV-A71 BrCr strain [4] = assay: CPE inhibition in EV-A71-infected RD cells; assay type: cell-based, Enterovirus A71; details: for EV-A71-induced CPE upon visual inspection: 1.25 μM, 72 hpi; for Selectivity Index (SI) = CC50/EC50: EC50 from CPE inhibition; for EC50: Enterovirus A, EVA71, EV-A71 MOI 0.1, 72 h, read-out: EC50 based on CPE inhibition
Procedure: as §3
(§6) For RD cell line infection, 20,000 cells/well were cultured in 96-well plate at 37 °C for 24 h. To prepare virus inoculum (MOI = 0.01, 0.1, or 1), EV-A71 was diluted in 2% FBS-DMEM. Medium on cell monolayer was removed, and the inoculum was added for 1 h at 37 °C for virus adsorption. After washing, the monolayer was cultured in DMEM supplemented with 2% FBS.
as §1
as §2, with “For determination of compounds half maximal effective concentration (EC50), the infected HIOs/cells were treated with DMSO (i.e., 0 µM) or compounds (0.15–40 μM) for 72 h.” left out
as §5

EV-A71 BrCr strain [5] = assay: Viral RNA yield (RT-qPCR) in EV-A71-infected HIOs; assay type: cell-based, Enterovirus A71; details: for Selectivity Index (SI) = CC50/EC50: EC50 from RNA yield; for EC50: Enterovirus A, EVA71, EV-A71 MOI 0.1, 72 h, RT-qPCR, read-out: EC50 based on RNA yield
Procedure: as §3, §4
(§7) RNA was extracted from harvested samples using RNeasy Plus Mini Kit (Qiagen, Hilden, Germany). cDNA was created from the isolated RNA using High-Capacity cDNA Reverse Transcription Kit (ThermoFisher Scientific, Waltham, MA, USA) according to the manufacturer’s instructions.
(§8) For EV-A71 replication quantification, each 10 µL reaction mixture contained: 5 µL of Master Mix, 1.5 µL of RNase-free water, 0.5 µL each of gene-specific forward and reverse primer, and 3 µL of cDNA as template. The reaction plate was loaded in a LightCycler® 480 Real-Time PCR System (Roche) and ran at 95 °C for 3 min for pre-incubation, followed by 40 amplification cycles of 95 °C for 15 s and 60 °C for 60 s. Signal detection and measurements were taken in each amplification cycle. The EV-A71 viral loads in the samples were detected with the PanEV primer using a previously described customized primers probe mix (Integrated DNA Technologies, Coralville, IA, USA). The viral gene copy number was determined by absolute quantification and making a standard curve using custom gBlocks™ Gene Fragments (Integrated DNA Technologies) (5′-[…]-3′).
as §5

EV-A71 BrCr strain [6] = assay: Viral RNA yield (RT-qPCR) in EV-A71-infected RD cells; assay type: cell-based, Enterovirus A71; details: for Selectivity Index (SI) = CC50/EC50: EC50 from RNA yield; for EC50: Enterovirus A, EVA71, EV-A71 MOI 0.1, 72 h, RT-qPCR, read-out: EC50 based on RNA yield
Procedure: as §3, §6, §7, §8, §5

HRV = test system: HRV; set-up: method as in PMID 14638501; details: human; cited from earlier work
HCV = test system: HCV; set-up: method as in PMID 29534607, PMID 20006612, PMID 19426125; details: human, HCV infection, after 8 to 12 weeks of treatment; cited from earlier work
enteroids = details: cited from earlier work
human rhinovirus (HRV) = test system: human rhinovirus (HRV); set-up: method as in PMID 6113314, PMID 2984980; details: cited from earlier work

| SMILES | CC50 at 72 h [1] [µM] | CC50 at 72 h [2] [µM] | EV-A71-induced CPE upon visual inspection (EV-A71 BrCr strain [3]) | Selectivity Index (SI) = CC50/EC50 (EV-A71 BrCr strain [3]) | EC50 (EV-A71 BrCr strain [3]) [nM] | EV-A71-induced CPE upon visual inspection (EV-A71 BrCr strain [4]) | Selectivity Index (SI) = CC50/EC50 (EV-A71 BrCr strain [4]) | EC50 (EV-A71 BrCr strain [4]) [nM] | Selectivity Index (SI) = CC50/EC50 (EV-A71 BrCr strain [5]) | EC50 (EV-A71 BrCr strain [5]) [nM] | Selectivity Index (SI) = CC50/EC50 (EV-A71 BrCr strain [6]) | EC50 (EV-A71 BrCr strain [6]) [nM] | also measured |
| --- | --- | --- | --- | --- | --- | --- | --- | --- | --- | --- | --- | --- | --- |
| CCOC(=O)/C=C/[C@H](C[C@@H]1CCNC1=O)NC(=O)[C@@H](CC(=O)[C@@H](NC(=O)c1cc(C)on1)C(C)C)Cc1ccc(F)cc1 [Rupintrivir, rupintrivir] | > 100 | > 100 | reduced | >667 | < 150 | reduced | >2857 | < 35 | >59 | 1700 ± 400 | >2857 | < 35 | protection from EV-A71-induced CPE (EV-A71 BrCr strain [3]; lowest concentration tested 0.15 μM): full protection; protection from EV-A71-induced CPE (EV-A71 BrCr strain [4]; lowest concentration tested 0.035 μM): full protection; viral RNA levels (EV-A71 BrCr strain [6]; at all tested concentrations, MOI 0.1, 72 h): 10 ± 3%; adverse side effects or treatment effects in phase II clinical studies (HRV): no adverse side effects or treatment effects |
| CC(C)[C@H](N)C(=O)O[C@@H]1[C@@H](CO)O[C@@H](n2ccc(N)nc2=O)[C@]1(C)O [Valopicitabine] | – | – | – | – | – | – | – | – | – | – | – | – | side effects during clinical study (HCV): gastrointestinal side effects |
| CCC(C)n1ncn(-c2ccc(N3CCN(c4ccc(OCC5COC(Cn6cncn6)(c6ccc(Cl)cc6Cl)O5)cc4)CC3)cc2)c1=O (stereo not shown) [itraconazole] | – | – | – | – | – | – | – | – | – | – | – | – | cytotoxicity in enteroids compared to cell lines (enteroids): enhanced cytotoxicity |
| CC(C)S(=O)(=O)n1c(N)nc2ccc(/C(=N/O)c3ccccc3)cc21 [Enviroxime, enviroxime] | 24 ± 7 | 28 ± 2 | reduced | 60 | 400 ± 200 | reduced | 467 | 60 ± 1 | 17 | 1400 ± 300 | 140 | 200 ± 40 | viability at 72 h, 100 µM ([1]; HIOs, 100 µM): 0%; viability at 72 h, 100 µM ([2]; RD cells, highest tested concentration 100 μM): 20%; side effects in clinical studies (human rhinovirus (HRV); HRV infection): gastrointestinal side effects; clinical effects against infection (human rhinovirus (HRV)): no significant clinical effects |
| C[C@@]1(O)[C@H](O)[C@@H](CO)O[C@H]1n1ccc(N)nc1=O [2′CMC, 2′-C-methylcytidine] | 48 ± 1 | > 100 | – | 48 | 1000 ± 300 | – | >76 | 1300 ± 40 | 32 | 1500 ± 300 | >50 | 2000 ± 400 | reduction of virus-induced CPE (maximum) (EV-A71 BrCr strain [3]; ATP-based viability assay, plateau from 2.5 μM to 20 μM): up to 66 ± 17%; protection from virus-induced CPE (EV-A71 BrCr strain [4]): complete protection |
